Assay results reported in patent US11872221B2, “Treating untreated or treatment-resistant diabetes with glucokinase activator” (HUA Medicine (Shanghai) Ltd., priority 2020, dated 2024).
Like-named read-outs stand apart in the source and are kept apart here.

Columns and labels:
Assay type in all cases: in vivo, human
[1] = system: glucose; test: Oral glucose tolerance test, glucose response (serum); conditions: for Glucose AUEC0-4h, Mean (SD) / Glucose CEav, Mean (SD) / Glucose CEmax, Mean (SD): baseline corrected, OGTT 75 g glucose 30 min after dose, T2DM subjects, sitagliptin 100 mg QD, dorzagliatin 75 mg BID; for Glucose AUEC0-4h, GMR (%) / Glucose CEav, GMR (%) / Glucose CEmax, GMR (%): printed in the monotherapy column, apparently combination vs that monotherapy
Description: (§1) This phase I study accessed the pharmacokinetic interaction between dorzagliatin and sitagliptin in T2DM subjects. This study also evaluated the safety and tolerability of dorzagliatin with simultaneous administration of sitagliptin in T2DM subjects. Moreover, this study accessed the pharmacodynamic responses of glucose, GLP-1, glucagon, insulin, and C-peptide following dorzagliatin, sitagliptin, or simultaneous administration of dorzagliatin and sitagliptin in T2DM subjects.
(§2) Study drugs are each taken 60 (±5) min prior to meals.
(§3) Subjects consumed a 75-gram glucose solution 30 min following study drug dose administration on Days 5, 10 and 15 in lieu of breakfast. Pharmacodynamic (PD) responses were evaluated by measuring GLP-1 and glucagon levels in plasma, and glucose, insulin, and C-peptide in serum within 60 min prior to oral glucose intake and 0.5, 1, 1.5, 2, 2.5, 3 and 4 h after oral glucose intake.

[2] = Phase 1 drug-drug interaction study, plasma pharmacokinetics of dorzagliatin and sitagliptin; conditions: for AUC(0-t) / Cmax: human, plasma, oral, T2DM subjects
Description: as §1, §2
Blood samples for the determination of dorzagliatin and sitagliptin concentrations and corresponding pharmacokinetic (PK) analysis were collected on Days 5, 10 and 15: pre-dose (within 30 min prior to dosing), and 0.25, 0.5, 1, 1.5, 2, 3, 4, 6, 8, 10, 12, 18, and 24 h post dose.
Dorzagliatin was provided as a film-coated tablets in 75 mg strength for oral administration 60 min prior to a meal. Sitagliptin was provided as JANUVIA® 100 mg tablets for oral administration 60 min prior to a meal. The total duration of participation in the study for each subject was about 59 days (up to 28-day screening period, 12-day run-in period, and 19-day in-clinic period).
The plasma concentration-time data for dorzagliatin and sitagliptin were analyzed using noncompartmental methods to calculate pharmacokinetic parameters.

[3] = system: C-peptide; test: Oral glucose tolerance test, C-peptide response (serum); conditions: for C-peptide CEmax, Mean (SD): baseline corrected, OGTT 75 g glucose 30 min after dose, T2DM subjects, sitagliptin 100 mg QD, dorzagliatin 75 mg BID; for C-peptide AUEC0-4h, GMR (%) / C-peptide CEav, GMR (%) / C-peptide CEmax, GMR (%): printed in the monotherapy column, apparently combination vs that monotherapy
Description: as §1, §2, §3

[4] = system: insulin; test: Oral glucose tolerance test, insulin response (serum); conditions: printed in the monotherapy column; apparently combination vs that monotherapy
Description: as §1, §2, §3

## CC(C)C[C@@H](C(=O)Nc1ccn(C[C@@H](O)CO)n1)N1CC(Oc2ccccc2Cl)=CC1=O [Dorzagliatin, (S)-2-(4-(2-chlorophenoxy)-2-oxo-2,5-dihydro-1H-pyrrol-1-yl)-N-(1-((R)-2,3-dihydroxypropyl)-1H-pyrazol-3-yl)-4-methylpentanamide]
[1]
  Glucose AUEC0-4h, Mean (SD): 339 (124) h · mg/dL
  Glucose CEav, Mean (SD): 84.8 (31) mg/dL
  Glucose CEmax, Mean (SD): 163 (39) mg/dL
  Glucose AUEC0-4h, GMR (%): 69%
  Glucose CEav, GMR (%): 69%
  Glucose CEmax, GMR (%): 83%
[2]; dorzagliatin in combination with sitagliptin vs dorzagliatin alone, 90% CI: 87, 120
  Percent ratio of geometric means (GMR) of dorzagliatin Cmax: 102%
[2]; dorzagliatin in combination with sitagliptin vs dorzagliatin alone, 90% CI: 96, 105
  Percent GMR of dorzagliatin AUC0-24h: 100%
[2]; dorzagliatin 75 mg BID alone (Day 15), read-out: Least squares geometric mean AUC0-24h of plasma dorzagliatin
  AUC(0-t): 6570 ng·h/mL
[2]; dorzagliatin 75 mg BID alone (Day 15), read-out: Least squares geometric mean Cmax of plasma dorzagliatin
  Cmax: 814 ng/mL
[2]; dorzagliatin 75 mg BID in combination with sitagliptin 100 mg QD (Day 10), read-out: Least squares geometric mean AUC0-24h of plasma dorzagliatin
  AUC(0-t): 6590 ng·h/mL
[2]; dorzagliatin 75 mg BID in combination with sitagliptin 100 mg QD (Day 10), read-out: Least squares geometric mean Cmax of plasma dorzagliatin
  Cmax: 833 ng/mL
[3]
  C-peptide CEmax, Mean (SD): 4.2 ng/mL
  C-peptide AUEC0-4h, GMR (%): 143%
  C-peptide CEav, GMR (%): 143%
  C-peptide CEmax, GMR (%): 145%
[4]
  Insulin AUEC0-4h, GMR (%): 159%
  Insulin CEav, GMR (%): 159%
  Insulin CEmax, GMR (%): 146%

## N[C@@H](CC(=O)N1CCn2c(nnc2C(F)(F)F)C1)Cc1cc(F)c(F)cc1F [Sitagliptin, (R)-3-amino-1-(3-(trifluoromethyl)-5,6-dihydro-[1,2,4]triazolo[4,3-a]pyrazin-7(8H)-yl)-4-(2,4,5-trifluorophenyl)butan-1-one]
[1]
  Glucose AUEC0-4h, Mean (SD): 378 (88) h · mg/dL
  Glucose CEav, Mean (SD): 94.5 (22) mg/dL
  Glucose CEmax, Mean (SD): 165 (35) mg/dL
  Glucose AUEC0-4h, GMR (%): 65%
  Glucose CEav, GMR (%): 65%
  Glucose CEmax, GMR (%): 87%
[2]; sitagliptin 100 mg QD alone (Day 5), read-out: Least squares geometric mean AUC0-24h of plasma sitagliptin
  AUC(0-t): 2940 ng·h/mL
[2]; sitagliptin 100 mg QD alone (Day 5), read-out: Least squares geometric mean Cmax of plasma sitagliptin
  Cmax: 410 ng/mL
[2]; sitagliptin 100 mg QD in combination with dorzagliatin 75 mg BID (Day 10), read-out: Least squares geometric mean AUC0-24h of plasma sitagliptin
  AUC(0-t): 2720 ng·h/mL
[2]; sitagliptin 100 mg QD in combination with dorzagliatin 75 mg BID (Day 10), read-out: Least squares geometric mean Cmax of plasma sitagliptin
  Cmax: 403 ng/mL
[2]; sitagliptin in combination with dorzagliatin vs sitagliptin alone, 90% CI: 84, 115
  Percent GMR of sitagliptin Cmax: 98%
[2]; sitagliptin in combination with dorzagliatin vs sitagliptin alone, 90% CI: 86, 100
  Percent GMR of sitagliptin AUC0-24h: 93%
[3]
  C-peptide CEmax, Mean (SD): 5.1 ng/mL
  C-peptide AUEC0-4h, GMR (%): 119%
  C-peptide CEav, GMR (%): 119%
  C-peptide CEmax, GMR (%): 125%
[4]
  Insulin AUEC0-4h, GMR (%): 110%
  Insulin CEav, GMR (%): 110%
  Insulin CEmax, GMR (%): 125%
